Laboratory results from paper doi:10.1101/2020.05.21.108605v3 (biorxiv, 2020).

Assays:
Format in all cases: cell-based
Kir2.1 (IK1) = molecular target: T1, Kir2.1 (IK1) (Homo sapiens, UniProt P63252); experiment: whole-cell patch clamp, pulse current inhibition
T1 sequence (P63252 1-427): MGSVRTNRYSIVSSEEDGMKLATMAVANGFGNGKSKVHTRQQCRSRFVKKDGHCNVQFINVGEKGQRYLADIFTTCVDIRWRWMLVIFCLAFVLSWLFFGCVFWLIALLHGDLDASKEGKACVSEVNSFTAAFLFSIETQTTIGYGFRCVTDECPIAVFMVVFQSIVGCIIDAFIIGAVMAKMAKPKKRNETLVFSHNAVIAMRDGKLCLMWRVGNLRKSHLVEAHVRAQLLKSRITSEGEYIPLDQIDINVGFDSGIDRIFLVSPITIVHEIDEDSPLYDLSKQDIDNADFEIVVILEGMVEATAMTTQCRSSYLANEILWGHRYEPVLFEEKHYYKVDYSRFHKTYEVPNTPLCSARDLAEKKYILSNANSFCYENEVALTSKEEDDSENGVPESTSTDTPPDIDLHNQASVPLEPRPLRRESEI

hERG (IKr) [1] = molecular target: T2, hERG (IKr) (Homo sapiens, UniProt Q12809); experiment: whole-cell patch clamp, tail current inhibition
T2 sequence (Q12809 whole entry): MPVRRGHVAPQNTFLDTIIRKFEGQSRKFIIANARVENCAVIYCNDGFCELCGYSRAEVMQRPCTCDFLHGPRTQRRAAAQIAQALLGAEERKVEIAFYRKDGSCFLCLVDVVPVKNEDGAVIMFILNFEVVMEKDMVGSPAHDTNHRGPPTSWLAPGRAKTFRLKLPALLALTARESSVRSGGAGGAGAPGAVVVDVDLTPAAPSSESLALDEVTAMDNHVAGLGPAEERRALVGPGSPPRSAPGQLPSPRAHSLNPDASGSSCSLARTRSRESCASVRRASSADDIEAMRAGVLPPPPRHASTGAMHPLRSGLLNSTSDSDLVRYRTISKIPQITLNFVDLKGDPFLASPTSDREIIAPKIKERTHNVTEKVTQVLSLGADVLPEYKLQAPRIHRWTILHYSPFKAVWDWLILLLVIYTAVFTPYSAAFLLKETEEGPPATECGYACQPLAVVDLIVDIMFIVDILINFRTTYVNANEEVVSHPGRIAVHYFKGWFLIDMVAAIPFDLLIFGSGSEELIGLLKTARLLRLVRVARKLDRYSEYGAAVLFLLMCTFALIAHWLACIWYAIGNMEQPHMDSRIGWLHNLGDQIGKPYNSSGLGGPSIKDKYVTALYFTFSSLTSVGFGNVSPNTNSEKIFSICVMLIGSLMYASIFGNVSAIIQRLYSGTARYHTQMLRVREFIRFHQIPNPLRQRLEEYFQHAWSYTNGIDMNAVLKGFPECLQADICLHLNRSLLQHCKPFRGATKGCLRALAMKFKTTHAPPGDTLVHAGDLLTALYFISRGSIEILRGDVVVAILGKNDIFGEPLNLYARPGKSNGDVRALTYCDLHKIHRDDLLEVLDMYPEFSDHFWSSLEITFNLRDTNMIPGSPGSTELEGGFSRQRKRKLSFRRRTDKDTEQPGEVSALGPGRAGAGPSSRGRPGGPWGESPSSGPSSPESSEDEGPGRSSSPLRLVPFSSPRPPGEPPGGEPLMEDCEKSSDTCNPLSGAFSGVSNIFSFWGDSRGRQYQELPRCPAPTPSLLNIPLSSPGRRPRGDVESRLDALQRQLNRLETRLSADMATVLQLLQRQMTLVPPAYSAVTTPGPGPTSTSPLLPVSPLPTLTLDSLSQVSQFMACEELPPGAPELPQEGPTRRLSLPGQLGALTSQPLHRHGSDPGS

hERG (IKr) [2] = molecular target: T2, hERG (IKr); experiment: whole-cell patch clamp
Cav1.2/β2/α2/δ1 (ICa,L) = Cav1.2/β2/α2/δ1 (ICa,L) (Homo sapiens, UniProt Q13936); experiment: perforated whole-cell patch clamp; settings: AZM alone, external pH 7.4
KCNQ1/E1 (IKs) = KCNQ1/E1 (IKs) (Homo sapiens, UniProt P51787); experiment: perforated whole-cell patch clamp; settings: AZM alone, external pH 7.4
KCNQ1/E1 (IKs), sequence (P51787 whole entry): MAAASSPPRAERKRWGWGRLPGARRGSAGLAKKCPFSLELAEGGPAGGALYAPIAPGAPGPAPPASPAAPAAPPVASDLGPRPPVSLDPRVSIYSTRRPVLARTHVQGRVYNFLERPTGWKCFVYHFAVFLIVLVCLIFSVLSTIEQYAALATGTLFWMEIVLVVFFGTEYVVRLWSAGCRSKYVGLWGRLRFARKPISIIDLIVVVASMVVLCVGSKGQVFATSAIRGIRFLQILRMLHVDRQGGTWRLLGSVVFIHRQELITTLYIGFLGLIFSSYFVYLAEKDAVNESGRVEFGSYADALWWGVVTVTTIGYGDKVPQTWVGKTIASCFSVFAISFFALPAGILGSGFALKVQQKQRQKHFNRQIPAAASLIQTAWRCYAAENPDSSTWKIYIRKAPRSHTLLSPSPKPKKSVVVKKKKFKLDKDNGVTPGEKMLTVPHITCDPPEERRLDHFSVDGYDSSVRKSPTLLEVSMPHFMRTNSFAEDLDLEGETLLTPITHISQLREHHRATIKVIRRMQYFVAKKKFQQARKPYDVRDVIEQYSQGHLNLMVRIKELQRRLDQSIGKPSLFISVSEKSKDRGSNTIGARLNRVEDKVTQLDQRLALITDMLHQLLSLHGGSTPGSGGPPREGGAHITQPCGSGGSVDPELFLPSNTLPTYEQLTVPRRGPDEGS

hNav1.5 (INa) = hNav1.5 (INa) (Homo sapiens, UniProt Q14524); experiment: whole-cell patch clamp; settings: AZM alone, external pH 7.4
hNav1.5 (INa), sequence (Q14524 whole entry): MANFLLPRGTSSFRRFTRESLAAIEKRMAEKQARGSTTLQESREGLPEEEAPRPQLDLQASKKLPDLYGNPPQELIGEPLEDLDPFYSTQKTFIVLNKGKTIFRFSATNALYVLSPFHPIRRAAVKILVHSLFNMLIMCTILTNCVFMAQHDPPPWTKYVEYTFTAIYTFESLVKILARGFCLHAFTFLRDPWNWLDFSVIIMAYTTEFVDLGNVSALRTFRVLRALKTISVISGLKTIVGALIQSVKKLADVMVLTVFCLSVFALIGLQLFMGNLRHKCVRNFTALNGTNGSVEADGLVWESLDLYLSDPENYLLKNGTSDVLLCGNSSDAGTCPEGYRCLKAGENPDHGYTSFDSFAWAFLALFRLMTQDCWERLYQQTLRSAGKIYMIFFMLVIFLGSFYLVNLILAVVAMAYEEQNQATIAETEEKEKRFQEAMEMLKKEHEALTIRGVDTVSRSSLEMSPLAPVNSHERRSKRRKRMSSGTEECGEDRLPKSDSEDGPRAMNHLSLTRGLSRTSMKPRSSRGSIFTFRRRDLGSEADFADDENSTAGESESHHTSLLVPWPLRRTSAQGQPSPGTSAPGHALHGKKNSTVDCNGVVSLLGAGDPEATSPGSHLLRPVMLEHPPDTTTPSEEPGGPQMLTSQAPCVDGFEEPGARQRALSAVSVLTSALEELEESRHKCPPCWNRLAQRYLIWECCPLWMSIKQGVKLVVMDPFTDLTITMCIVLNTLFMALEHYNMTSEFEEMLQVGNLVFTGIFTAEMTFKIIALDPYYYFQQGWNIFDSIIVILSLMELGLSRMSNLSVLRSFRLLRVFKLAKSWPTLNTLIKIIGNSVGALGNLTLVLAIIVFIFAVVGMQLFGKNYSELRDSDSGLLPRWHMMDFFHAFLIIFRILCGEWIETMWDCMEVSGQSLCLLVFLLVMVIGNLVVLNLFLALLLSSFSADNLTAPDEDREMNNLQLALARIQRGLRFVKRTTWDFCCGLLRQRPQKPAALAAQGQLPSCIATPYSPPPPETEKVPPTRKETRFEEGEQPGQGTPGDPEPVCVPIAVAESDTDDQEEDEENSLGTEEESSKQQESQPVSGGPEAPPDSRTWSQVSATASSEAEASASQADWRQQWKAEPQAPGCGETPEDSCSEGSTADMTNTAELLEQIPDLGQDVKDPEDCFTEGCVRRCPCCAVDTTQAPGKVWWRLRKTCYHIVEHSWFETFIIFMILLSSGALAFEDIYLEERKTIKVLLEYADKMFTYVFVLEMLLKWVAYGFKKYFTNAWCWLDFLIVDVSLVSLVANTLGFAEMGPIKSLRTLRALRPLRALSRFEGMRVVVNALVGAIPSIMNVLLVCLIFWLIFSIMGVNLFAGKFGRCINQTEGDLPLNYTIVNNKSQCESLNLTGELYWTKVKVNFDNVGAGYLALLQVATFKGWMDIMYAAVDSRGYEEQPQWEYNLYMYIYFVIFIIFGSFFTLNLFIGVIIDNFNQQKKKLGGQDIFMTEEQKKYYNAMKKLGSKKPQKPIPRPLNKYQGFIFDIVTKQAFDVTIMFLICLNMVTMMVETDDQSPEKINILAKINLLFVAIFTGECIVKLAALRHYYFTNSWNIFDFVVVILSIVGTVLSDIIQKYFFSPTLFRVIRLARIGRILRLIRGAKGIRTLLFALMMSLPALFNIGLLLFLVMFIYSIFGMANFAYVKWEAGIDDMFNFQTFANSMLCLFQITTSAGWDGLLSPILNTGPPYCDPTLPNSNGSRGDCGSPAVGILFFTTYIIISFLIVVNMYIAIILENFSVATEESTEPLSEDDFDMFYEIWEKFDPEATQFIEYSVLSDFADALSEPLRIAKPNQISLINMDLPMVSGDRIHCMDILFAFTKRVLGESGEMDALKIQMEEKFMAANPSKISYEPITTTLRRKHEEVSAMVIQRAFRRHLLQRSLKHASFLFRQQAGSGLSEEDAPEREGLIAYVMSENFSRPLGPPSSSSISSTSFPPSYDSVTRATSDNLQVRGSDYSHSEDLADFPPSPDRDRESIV

CCN(CCO)CCCC(C)Nc1ccnc2cc(Cl)ccc12 (stereo not drawn) [hydroxychloroquine]
IC50 (Kir2.1 (IK1)): 34 ± 5 µM | IC50 (hERG (IKr) [1]): 10 ± 0.6 µM

CC[C@H]1OC(=O)[C@H](C)[C@@H](O[C@H]2C[C@@](C)(OC)[C@@H](O)[C@H](C)O2)[C@H](C)[C@@H](O[C@@H]2O[C@H](C)C[C@H](N(C)C)[C@H]2O)[C@](C)(O)C[C@@H](C)CN(C)[C@H](C)[C@@H](O)[C@]1(C)O [azithromycin]
% reduction at 100 μM (hERG (IKr) [2]): < 35% | % reduction at 100 μM (Cav1.2/β2/α2/δ1 (ICa,L)): < 35% | % reduction at 100 μM (KCNQ1/E1 (IKs)): < 35% | % reduction at 100 μM (hNav1.5 (INa)): < 35%
